Experimental data from patent US20020035061A1, “COMPOSITIONS AND METHODS FOR TREATING INFECTIONS USING CATIONIC PEPTIDES ALONE OR IN COMBINATION WITH ANTIBIOTICS” (priority 1996, published 2002).
Values after ≈ are worked out from the molar mass of the structure shown. Values joined by “and” are separate entries in the source; they are usually repeats but may differ in a detail not shown here. Equal values may be shown once. Read-outs that look alike come from different tables or passages of the source.

Key:
Assay in all cases: microbe, parasite or virus in culture
Type in all cases: cell-based
bacterial isolates = system: bacterial isolates
[1] = system: inherently resistant microorganisms; settings: for MIC: Staphylococcus aureus, MRSA
[2] = system: microorganisms with acquired resistance
[3] = Acinetobacter calcoaceticus, read-out: Piperacillin MIC Alone, A. calcoaceticus 2
[4] = Acinetobacter calcoaceticus, read-out: Piperacillin MIC Alone, A. calcoaceticus 7
[5] = Enterobacter cloacae, read-out: Piperacillin MIC Alone, E. cloacae 9
[6] = Enterobacter cloacae, read-out: Piperacillin MIC Alone, E. cloacae 10
[7] = Enterobacter cloacae, read-out: Piperacillin MIC Alone, E. cloacae 13
[8] = Enterobacter cloacae, read-out: Piperacillin MIC Alone, E. cloacae 16
[9] = Enterobacter cloacae, read-out: Piperacillin MIC Alone, E. cloacae 17
[10] = Escherichia coli, read-out: Piperacillin MIC Alone, E. coli 1
[11] = Haemophilus influenzae, read-out: Piperacillin MIC Alone, H. influenzae 1
[12] = Pseudomonas aeruginosa, read-out: Piperacillin MIC Alone, P. aeruginosa 7
[13] = Pseudomonas aeruginosa, read-out: Piperacillin MIC Alone, P. aeruginosa 15
[14] = Pseudomonas aeruginosa, read-out: Piperacillin MIC Alone, P. aeruginosa 22
[15] = Serratia marcescens, read-out: Piperacillin MIC Alone, S. marcescens SB1
[16] = Stenotrophomonas maltophilia, read-out: Piperacillin MIC Alone, S. maltophilia 2
[17] = Stenotrophomonas maltophilia, read-out: Piperacillin MIC Alone, S. maltophilia 3
[18] = Stenotrophomonas maltophilia, read-out: Piperacillin MIC Alone, S. maltophilia 11
[19] = Stenotrophomonas maltophilia, read-out: Piperacillin MIC Alone, S. maltophilia 14
[20] = Stenotrophomonas maltophilia, read-out: Piperacillin MIC Alone, S. maltophilia 34
[21] = Stenotrophomonas maltophilia, read-out: Piperacillin MIC Alone, S. maltophilia 35

With `CCN1CCN(C(=O)N[C@@H](C(=O)N[C@@H]2C(=O)N3[C@@H]2SC(C)(C)[C@@H]3C(=O)O)c2ccccc2)C(=O)C1=O` [Piperacillin] the “Piperacillin MIC Alone” value (bacterial isolates; A. calcoaceticus 3) was 128 µg/mL, the MIC (bacterial isolates; [3]) was over 512 µg/mL and the MIC (bacterial isolates; Acinetobacter calcoaceticus, read-out: Piperacillin MIC Alone, A. calcoaceticus 3) was 64 µg/mL (≈ 124 µM). It also gave an MIC (bacterial isolates; [4]) of 32 µg/mL (≈ 61.8 µM), an MIC (bacterial isolates; Acinetobacter calcoaceticus, read-out: Piperacillin MIC Alone, A. calcoaceticus 8) of 64 µg/mL (≈ 124 µM) and an MIC (bacterial isolates; Enterobacter cloacae, read-out: Piperacillin MIC Alone, E. cloacae 6) of over 128 µg/mL. The MIC (bacterial isolates; [5]) was over 128 µg/mL, the MIC (bacterial isolates; [6]) was over 128 µg/mL and the MIC (bacterial isolates; [7]) was 128 µg/mL (≈ 247 µM). It also gave an MIC (bacterial isolates; [8]) of over 512 µg/mL, an MIC (bacterial isolates; [9]) of over 512 µg/mL and an MIC (bacterial isolates; [10]) of over 128 µg/mL. For the same compound, the “Piperacillin MIC Alone” value (bacterial isolates; H. influenzae 1) was 32 µg/mL, the MIC (bacterial isolates; [11]) was 64 µg/mL (≈ 124 µM) and the MIC (bacterial isolates; Haemophilus influenzae, read-out: Piperacillin MIC Alone, H. influenzae 3) was 0.5 µg/mL (≈ 0.966 µM). The MIC (bacterial isolates; Haemophilus influenzae, read-out: Piperacillin MIC Alone, H. influenzae SB1) was 0.5 µg/mL (≈ 0.966 µM), the “Piperacillin MIC Alone” value (bacterial isolates; P. aeruginosa 7) was 128 µg/mL and the “Piperacillin MIC Alone” value (bacterial isolates; P. aeruginosa 41) was 32 µg/mL. For the same compound, the MIC (bacterial isolates; [12]) was over 128 µg/mL, the MIC (bacterial isolates; [13]) was over 128 µg/mL and the MIC (bacterial isolates; [14]) was over 128 µg/mL. For the same compound, the MIC (bacterial isolates; Pseudomonas aeruginosa, read-out: Piperacillin MIC Alone, P. aeruginosa 28) was over 512 µg/mL, the MIC (bacterial isolates; Pseudomonas aeruginosa, read-out: Piperacillin MIC Alone, P. aeruginosa 29) was 512 µg/mL (≈ 989 µM) and the MIC (bacterial isolates; Pseudomonas aeruginosa, read-out: Piperacillin MIC Alone, P. aeruginosa 32) was 64 µg/mL (≈ 124 µM). The MIC (bacterial isolates; Pseudomonas aeruginosa, read-out: Piperacillin MIC Alone, P. aeruginosa 41) was 64 µg/mL (≈ 124 µM), the “Piperacillin MIC Alone” value (bacterial isolates; S. aureus 19 MRSA) was over 128 µg/mL and the “Piperacillin MIC Alone” value (bacterial isolates; S. aureus SB3MRSA) was 128 µg/mL. It also gave an MIC (bacterial isolates; [15]) of 64 µg/mL (≈ 124 µM), an MIC (bacterial isolates; Staphylococcus aureus, MRSA, read-out: Piperacillin MIC Alone, S. aureus 11 MRSA) of over 128 µg/mL and an MIC (bacterial isolates; Staphylococcus aureus, MRSA, read-out: Piperacillin MIC Alone, S. aureus 18 MRSA) of over 128 µg/mL. For the same compound, the MIC (bacterial isolates; Staphylococcus aureus, MRSA, read-out: Piperacillin MIC Alone, S. aureus 19 MRSA) was 128 µg/mL (≈ 247 µM), the MIC (bacterial isolates; Staphylococcus aureus, read-out: Piperacillin MIC Alone, S. aureus SB2MRSA) was 128 µg/mL (≈ 247 µM) and the MIC (bacterial isolates; Staphylococcus aureus, read-out: Piperacillin MIC Alone, S. aureus SB3MRSA) was over 128 µg/mL. It also gave an MIC (bacterial isolates; [16]) of 64 µg/mL (≈ 124 µM), an MIC (bacterial isolates; [17]) of 128 µg/mL (≈ 247 µM) and an MIC (bacterial isolates; Stenotrophomonas maltophilia, read-out: Piperacillin MIC Alone, S. maltophilia 5) of over 128 µg/mL. For the same compound, the MIC (bacterial isolates; Stenotrophomonas maltophilia, read-out: Piperacillin MIC Alone, S. maltophilia 6) was over 128 µg/mL, the MIC (bacterial isolates; Stenotrophomonas maltophilia, read-out: Piperacillin MIC Alone, S. maltophilia 9) was over 128 µg/mL and the MIC (bacterial isolates; [18]) was over 128 µg/mL. For the same compound, the MIC (bacterial isolates; Stenotrophomonas maltophilia, read-out: Piperacillin MIC Alone, S. maltophilia 13) was over 128 µg/mL, the MIC (bacterial isolates; [19]) was 128 µg/mL (≈ 247 µM) and the MIC (bacterial isolates; [20]) was over 512 µg/mL. It also gave an MIC (bacterial isolates; [21]) of over 256 µg/mL, an MIC (bacterial isolates; Stenotrophomonas maltophilia, read-out: Piperacillin MIC Alone, S. maltophilia 38) of over 512 µg/mL and an MIC (bacterial isolates; Stenotrophomonas maltophilia, read-out: Piperacillin MIC Alone, S. maltophilia 40) of over 512 µg/mL. For the same compound, the MIC (bacterial isolates; Stenotrophomonas maltophilia, read-out: Piperacillin MIC Alone, S. maltophilia 42) was over 512 µg/mL, the “Piperacillin MIC + Peptide” value ([1]; S. aureus MRSA, peptide MBI 11F3CN) was 4 µg/mL and the MIC ([1]; read-out: Piperacillin MIC + Peptide, S. aureus MRSA, peptide MBI 11B7CN) was 0.5 µg/mL. For the same compound, the MIC ([1]; read-out: Piperacillin MIC + Peptide, S. aureus MRSA, peptide MBI 11D18CN) was 2 µg/mL, the MIC ([1]; read-out: Piperacillin MIC + Peptide, S. aureus MRSA, peptide MBI 11E3CN) was 2 µg/mL and the MIC ([1]; read-out: Piperacillin MIC + Peptide, S. aureus MRSA, peptide MBI 11F3CN) was 2 µg/mL. The MIC ([1]; read-out: Piperacillin MIC + Peptide, S. aureus MRSA, peptide MBI 11F4CN) was 4 µg/mL, the MIC ([1]; read-out: Piperacillin MIC + Peptide, S. aureus MRSA, peptide MBI 11G7CN) was 0.5 µg/mL and the MIC ([1]; read-out: Piperacillin MIC + Peptide, S. aureus MRSA, peptide MBI 21A2) was 0.5 µg/mL. The MIC ([1]; read-out: Piperacillin MIC + Peptide, S. aureus MRSA, peptide MBI 26) was 0.5 µg/mL, the MIC ([1]; read-out: Piperacillin MIC + Peptide, S. aureus MRSA, peptide MBI 29) was 4 µg/mL and the MIC ([1]; read-out: Piperacillin MIC Alone, S. aureus MRSA) was 128 µg/mL (≈ 247 µM). For the same compound, the MIC [2, 3] was over 512 µg/mL, the MIC [2, 4] was 32 µg/mL (≈ 61.8 µM) and the MIC [2, 5] was over 128 µg/mL. It also gave an MIC [2, 6] of over 128 µg/mL, an MIC [2, 7] of 128 µg/mL (≈ 247 µM) and an MIC [2, 8] of over 512 µg/mL. It also gave an MIC [2, 9] of over 512 µg/mL, an MIC ([2]; Enterobacter cloacae, read-out: Piperacillin MIC Alone, E. cloacae 19) of 64 µg/mL (≈ 124 µM) and an MIC [2, 10] of over 128 µg/mL. For the same compound, the “Piperacillin MIC Alone” value ([2]; H. influenzae 1) was 32 µg/mL, the MIC [2, 11] was 64 µg/mL (≈ 124 µM) and the “Piperacillin MIC Alone” value ([2]; P. aeruginosa 7) was over 128 µg/mL. The “Piperacillin MIC Alone” value ([2]; P. aeruginosa 23) was >128 µg/mL and 256 µg/mL, the “MIC comb. (antibiotic agent)” value ([2]; P. aeruginosa, with MBI 27) was 64 µg/mL (≈ 124 µM) and the “MIC comb. (antibiotic agent)” value ([2]; P. aeruginosa, with MBI 29) was 64 µg/mL (≈ 124 µM). The MIC ([2]; Pseudomonas aeruginosa, read-out: MIC alone (antibiotic agent), P. aeruginosa) was 128 µg/mL (≈ 247 µM), the MIC [2, 12] was 128 µg/mL (≈ 247 µM) and the MIC ([2]; Pseudomonas aeruginosa, read-out: Piperacillin MIC Alone, P. aeruginosa 12) was over 128 µg/mL. The MIC [2, 13] was over 128 µg/mL, the MIC [2, 14] was over 128 µg/mL and the MIC ([2]; Pseudomonas aeruginosa, read-out: Piperacillin MIC Alone, P. aeruginosa 23) was 128 µg/mL (≈ 247 µM). The MIC ([2]; Pseudomonas aeruginosa, read-out: Piperacillin MIC Alone, P. aeruginosa 24) was over 512 µg/mL, the MIC ([2]; Pseudomonas aeruginosa, read-out: Piperacillin MIC Alone, P. aeruginosa 26) was 128 µg/mL (≈ 247 µM) and the “MIC comb. (antibiotic agent)” value ([2]; S. aureus, with MBI 27) was 64 µg/mL (≈ 124 µM). The “Piperacillin MIC Alone” value ([2]; S. maltophilia 2) was 64 µg/mL, the “Piperacillin MIC Alone” value ([2]; S. maltophilia 4) was 128 µg/mL and the “Piperacillin MIC Alone” value ([2]; S. maltophilia 35) was over 512 µg/mL. The “MIC comb. (antibiotic agent)” value ([2]; S. maltophilia, with MBI 26) was 16 µg/mL (≈ 30.9 µM), the MIC [2, 15] was 64 µg/mL (≈ 124 µM) and the MIC ([2]; Staphylococcus aureus, read-out: MIC alone (antibiotic agent), S. aureus) was 128 µg/mL (≈ 247 µM). It also gave an MIC ([2]; Stenotrophomonas maltophilia, read-out: MIC alone (antibiotic agent), S. maltophilia) of over 512 µg/mL, an MIC [2, 16] of 32 µg/mL (≈ 61.8 µM) and an MIC [2, 17] of 64 µg/mL (≈ 124 µM). It also gave an MIC ([2]; Stenotrophomonas maltophilia, read-out: Piperacillin MIC Alone, S. maltophilia 4) of 64 µg/mL (≈ 124 µM), an MIC [2, 18] of 32 µg/mL (≈ 61.8 µM) and an MIC [2, 19] of 128 µg/mL (≈ 247 µM). For the same compound, the MIC [2, 20] was over 512 µg/mL, the MIC [2, 21] was over 256 µg/mL and the MIC ([2]; Stenotrophomonas maltophilia, read-out: Piperacillin MIC Alone, S. maltophilia 41) was over 512 µg/mL.
